ChEMBL document CHEMBL3507680, “University of Dundee, Gates Library screen for HepG2 cell viability”

Assay: Human HepG2 cell viability assay in 384 well format
Assay type: toxicity, cell-based
Design: dose 125 nL, time 70.5 hour; cytotoxicity at 70.5 h: concentration not given beside the values
Conditions: HepG2 cells, read-out: Inhibition

Compound	cytotoxicity at 70.5 h [%]
CCN(CCNC(=O)c1cccnc1OCCOC)C1CC1	0.553
CCC(C)N(C)CCNC(=O)c1ccccc1OCCOC (stereo not drawn)	-6.03
Cc1nc(C)n(CC2CCCN(CCc3ccccc3)C2)n1 (stereo not drawn)	4.16
Cc1nc(C)n(CC2CCCN(CCOc3ccccc3C#N)C2)n1 (stereo not drawn)	18.8
CC(=O)NCCNC(=O)CNC1CCCN(c2ccc(C)nn2)C1 (stereo not drawn)	17.7
Cc1nc(C)n(CC2CN(CCCOc3ccccc3)CCO2)n1 (stereo not drawn)	-2.14
Cc1nc(C)n(CC2CCCN(CCOc3ccc(F)cc3)C2)n1 (stereo not drawn)	-3.5
CCNC(c1cccnc1)c1ccc(F)c(C)c1 (stereo not drawn)	1.17
Cc1nc(C)n(CC2CCCN(CCOc3cccc(F)c3)C2)n1 (stereo not drawn)	0.903
Clc1cccc(OCCCN2CCOC(Cn3cncn3)C2)c1 (stereo not drawn)	1.4
Cc1nn(C)c(N(C)C)c1CNCc1cccnc1N(C)C	23.9
Cc1nn(C)c(N(C)C)c1CNCc1cccnc1OC(C)C	21.9
Cc1ccc(N2CCCC(NCc3ccccn3)C2)nn1 (stereo not drawn)	25.6
CCOc1ncccc1CNCc1c(C)nn(C)c1N(C)C	24.1
Cc1ccc(N2CCCC(NCc3ccc(C)s3)C2)nn1 (stereo not drawn)	3.59
Cc1nc2ccccc2nc1CN1CCOC(Cn2cccn2)C1 (stereo not drawn)	-9.86
CCc1nc(CN2CCCC(Cn3nc(C)nc3C)C2)no1 (stereo not drawn)	-9.12
O=C(NCc1ccccc1F)NCC(O)c1cccc(F)c1 (stereo not drawn)	-10.3
CC(C)C(=O)NC1CCCN(C(=O)c2ccccc2O)C1 (stereo not drawn)	-7.34
CC(C)C(=O)NC1CCCN(C(=O)c2cc(Cl)ccc2O)C1 (stereo not drawn)	15.5
COc1ccc(C(=O)N2CCCC(NC(=O)C(C)C)C2)c(O)c1 (stereo not drawn)	2.73
O=C(NCCc1ccccc1F)NCC(O)c1cccc(F)c1 (stereo not drawn)	-7.16
CCN(Cc1ccccc1Cl)Cn1nc(C)c2c(C)onc2c1=O	-6.62
CCN(Cc1cccc(C)c1)Cn1nc(C)c2c(C)onc2c1=O	-10.8

Compound	cytotoxicity at 70.5 h [%]
O=C(NCc1cccc(F)c1)NCC(O)c1cccc(F)c1 (stereo not drawn)	20.3
c1ccc(-c2nc(CN3CCOC(Cn4cccn4)C3)co2)cc1 (stereo not drawn)	4.42
Cc1ccc(-c2nc(CN3CCOC(Cn4cccn4)C3)co2)cc1 (stereo not drawn)	-5.71
c1csc(-c2nc(CN3CCOC(Cn4cccn4)C3)cs2)c1 (stereo not drawn)	-8.48
Cc1cc(C)n(C2CCCN(C(=O)c3cn4cccnc4n3)C2)n1 (stereo not drawn)	-6.47
Cc1cccc(N(C)S(=O)(=O)c2cc(C(=O)O)cs2)c1	14.1
CN1CCCc2cc(CNC(=O)c3cccnc3O)ccc21	-1.9
CCOc1cccc2c1OCC(C(=O)NS(=O)(=O)c1ccc(Br)s1)=C2	14.6
O=C(c1cnc(-c2ccco2)s1)N1CCCCC1Cn1cccn1 (stereo not drawn)	-9.96
O=C(c1ccc(Cn2cccc2)cc1)N1CCN(CCO)CC1	-4.52
Cc1nc(C)c(CN2CCOC(CNc3cccnn3)C2)s1 (stereo not drawn)	-5.6
Cc1ccc(NC2CCN(C(=O)CCCn3ccnc3C)CC2)nn1	-7.72
CCC(O)CN1CCN(C(=O)c2ccc(Cn3cccc3)cc2)CC1 (stereo not drawn)	-11.6
CCc1cnc(CN(C)C2CCN(CCn3cc(C#N)cn3)C2)o1 (stereo not drawn)	16.4
COCc1nc(CN2CCOC(CNc3cccnn3)C2)cs1 (stereo not drawn)	-11.6
CCc1nc(CN(C)C2CCN(CCn3cccn3)C2)no1 (stereo not drawn)	-15.3
CCOc1ncccc1C(=O)N1CCCC1Cn1cc(C)cn1 (stereo not drawn)	-5.13
CN(C)Cc1cccc(C(=O)N2CCCC(n3cncn3)C2)c1 (stereo not drawn)	-12.1
CC(=O)N1CCCN(C(=O)c2cnn(-c3ccccc3Cl)c2)CC1	-17.1
Cc1cc(C)n(C2CCCN(C(=O)c3cccc4c3OCO4)C2)n1 (stereo not drawn)	-10.8
O=C(Cc1ccc2c(c1)CCO2)N1CCCC1c1noc(C2CC2)n1 (stereo not drawn)	9.85
CN(C)c1ccc(CNC(=O)NCCc2cn3ccccc3n2)cn1	-3.45
CCn1cnnc1CNC(=O)Cc1ccc2c(c1)OCCO2	-14.5
CN(C)C(=O)CN1CCN(C(=O)c2cnn(-c3ccccc3Cl)c2)CC1	-13.6

Compound	cytotoxicity at 70.5 h [%]
O=C(c1cnc(-c2cnccn2)s1)N1CCCC(n2cccn2)C1 (stereo not drawn)	-6.04
CN1CCN(C(=O)c2cnn(-c3ccccc3Cl)c2)CC1	-8.29
COC(=O)c1cccc(C(=O)N2CCCC(n3cncn3)C2)c1 (stereo not drawn)	-8.97
CCc1nc(CN2CCOC(CNc3cccnn3)C2)cs1 (stereo not drawn)	10.3
Cc1nc(CCNC(=O)NCc2cccc(N(C)C)n2)cs1	-12.8
CCc1nccn1C1CCCN(C(=O)c2cncnc2C)C1 (stereo not drawn)	16
CCCn1nc2c(cc1=O)CN(CCN1CCCC1=O)CC2	-10.7
Cc1cc(C)n(CC2CCCN2CC(=O)N(C)CCC#N)n1 (stereo not drawn)	-8.11
Cc1cc(C)n(CC2CCCN2CC(=O)N(C)Cc2ccco2)n1 (stereo not drawn)	-8.36
FC(F)(F)c1cccc(CNc2nccc(C(F)(F)F)n2)c1	-3.61
O=C(NCCCn1nc2ccccn2c1=O)Nc1ccc(F)cc1F	-8.62
O=C(NCCc1coc(-c2ccc(F)cc2)n1)NC1CCC(O)CC1 (stereo not drawn)	27.6
CN(C(=O)Cc1c[nH]c2ccccc12)C1CCN(c2ccccn2)CC1	9.62
Cn1cc(C(=O)N2CCCC(n3cccn3)C2)c2ccccc21 (stereo not drawn)	0.858
Cc1nn(-c2ccccc2)cc1C(=O)N1CCCC(n2cccn2)C1 (stereo not drawn)	-1.21
Cc1nn(-c2ccccc2)cc1C(=O)N1CCCN2CCCC2C1 (stereo not drawn)	3.01
Cc1noc(C)c1CN1CCN(Cc2nccn2C)CC1	-4.67
Cc1ccc(-c2nc(CCNC(=O)NC3CCN(C)CC3)co2)cc1	-4.33
COc1ccccc1CCN(C)C(=O)NC(C)c1nncn1C (stereo not drawn)	-4.33
Cc1cc(C)n(CC2CCCCN2C(=O)c2cnn(C)c2)n1 (stereo not drawn)	8.99
Cc1cc(C)n(CC2CCCCN2C(=O)c2ccc3c(c2)OCO3)n1 (stereo not drawn)	-2.07
Cc1ccc2oc(C(=O)N3CCc4nnc(N(C)C)cc4C3)cc2n1	-3.29
Cc1cnc(CN2CCCC(c3cc(C(F)(F)F)[nH]n3)C2)cn1 (stereo not drawn)	-1.33
COCCN1CCN(Cc2cccc(OCC(N)=O)c2)CC1C (stereo not drawn)	10.7

Compound	cytotoxicity at 70.5 h [%]
Cc1cnn(CC2CN(CC(=O)NCCc3cccs3)CCO2)c1 (stereo not drawn)	-2.04
Cc1cccc(-c2noc(CN3CCCC3Cn3cccn3)n2)c1 (stereo not drawn)	8.86
Cc1cnn(CC2CN(CC(=O)N(C)c3nccs3)CCO2)c1 (stereo not drawn)	-2.03
Cc1cc(C)n(CCC(=O)N2CCCC(n3cncn3)C2)n1 (stereo not drawn)	25.8
OC(COCc1ccccc1F)CN1CCc2c(ncn2C2CC2)C1 (stereo not drawn)	-2.37
CCc1nc(CC(=O)N2CCCC2Cn2cccn2)cs1 (stereo not drawn)	2.11
Cc1nc(C)n(CC2CCCN2Cc2cn3c(C)cccc3n2)n1 (stereo not drawn)	-4.2
OC(CNCCn1cccn1)c1ccc(F)c(F)c1 (stereo not drawn)	0.389
CC(Cn1cccn1)NC(=O)N1CCN(Cc2cccs2)CC1 (stereo not drawn)	17
CC(Cn1cccn1)NC(=O)NCc1ccccn1 (stereo not drawn)	-3.27
Cc1cc(NC(=O)NCC2CCOC2)no1 (stereo not drawn)	-11.6
O=C(NCCCN1CCc2ccccc2C1)c1cccnc1O	-11.9
Cc1cc(C(=O)NCc2ccc(N3CCCC(C(N)=O)C3)cc2)[nH]n1 (stereo not drawn)	-2.55
Cc1occc1C(=O)NCc1ccc(N2CCCC(C(N)=O)C2)cc1 (stereo not drawn)	-6.48
CC(Cn1cccn1)NC(=O)NCc1cccs1 (stereo not drawn)	-16.6
CS(=O)(=O)c1ccccc1C(=O)NCCCN1CCc2ccccc2C1	18.5
Cc1cn2c(n1)CCC(NC(=O)c1cc(Br)cn1C)C2 (stereo not drawn)	1.7
Cc1cc(OCC(=O)N2CCCC(c3ccn[nH]3)C2)no1 (stereo not drawn)	-5.93
Cc1cc(C(=O)NC2CCc3nc(C)cn3C2)[nH]n1 (stereo not drawn)	-5.51
Cc1cn2c(n1)CCC(NC(=O)c1c[nH]c(C)n1)C2 (stereo not drawn)	-5.66
Cn1nc2c(cc1=O)CN(Cc1nc(C(C)(C)C)no1)CC2	-5.46
Cc1cc(CN(C)C(=O)c2ccc(Cl)c(S(C)(=O)=O)c2)no1	13.8
COc1cccc(C(=O)NCCCN2CCc3ccccc3C2)c1OC	-11.3
Cn1cnc2c1CCN(CCS(=O)(=O)c1ccccc1)C2	-17

Compound	cytotoxicity at 70.5 h [%]
Cc1nc(C2CCCN(C(=O)COCc3ccccc3Cl)C2)no1 (stereo not drawn)	-7.76
Cc1nc(C)n(CC2CN(CCCOc3ccccc3C)CCO2)n1 (stereo not drawn)	11.3
COc1c(C2CCCN2Cc2c(C)noc2C)c(C)nn1C (stereo not drawn)	-5.56
O=C(C1CCN(c2snc3ccccc23)CC1)N1CCCCCC1	28.1
Cc1nn(C)c(N(C)C)c1CNCc1ccccc1CN(C)C	18.8
CCc1nnc(CNCC2CCN(CC(O)c3ccccc3)CC2)o1 (stereo not drawn)	15.4
CC(OCC1CC1)C(=O)N1CCCN(Cc2cnn(C)c2)CC1 (stereo not drawn)	24.6
CC(OCC1CC1)C(=O)N1CCCN(Cc2nccn2C)CC1 (stereo not drawn)	-11.2
COc1cc(C(=O)NC(CC(=O)O)c2cccs2)cc(Cl)c1OC (stereo not drawn)	-8.1
Cc1noc(C)c1CNCC1CCN(CC(O)c2ccccc2)CC1 (stereo not drawn)	2.35
Cc1cn2nc(N3CCCN(Cc4noc(C)n4)CC3)sc2n1	-4.93
CN(C)CC1CN(c2ncnc3[nH]ccc23)CCO1 (stereo not drawn)	5.61
Cc1ccc(NC(=O)N2CCN(Cc3noc(C4CC4)n3)CC2)cc1	27.4
Cc1cc(C)cc(NS(=O)(=O)c2cc3c(c(C(=O)O)c2)OCCO3)c1	-5.38
CCc1cccc(NS(=O)(=O)c2cc3c(c(C(=O)O)c2)OCCO3)c1	4.16
Cc1ccn2cc(C(=O)N3CCCC3c3c(C)nn(C)c3C)nc2c1 (stereo not drawn)	-7.44
Cc1cc(C(=O)N2CCc3nnc(N)cc3C2)c(C)n1-c1cccnc1	-1.23
O=C(C1CCC1)N1CCN(c2snc3ccccc23)CC1	44.7
CC(C)(O)CN1CCN(C(=O)c2sccc2C2CC2)CC1	-6.03
COc1ccc(COCC(O)CNC(=O)c2cnc(C)cn2)cc1 (stereo not drawn)	-8.25
CC(C)n1ccnc1CN1CCCN(C(=O)CC2C=CCC2)CC1 (stereo not drawn)	31.4
Cc1cnn(CCNCc2ccccc2OCc2cccnc2)c1	-3.61
